Values of other authors as cited in US9901523B2, “Oral care products comprising zinc oxide and trimethylglycine” (Colgate-Palmolive Company, priority 2012, dated 2018).

Conditions: water at 30° C.

For `[O]=[Zn]` [Zinc oxide], the “solubility of zinc oxide” value is listed as “about 0.16 mg per 100 ml of water”.
